Measured values published in US20150359815A1, “PAK1 INHIBITION FOR TREATMENT OF ACUTE MYELOID LEUKEMIA AND MYELODYSPLASTIC SYNDROMES” (ALBERT EINSTEIN COLLEGE OF MEDICINE OF YESHIVA UNIVERSITY, priority 2013, published 2015).

Legend:
[1] = test system: THP1 AML cells; test: Cell proliferation assay, THP1 AML cells; type: cell-based, human; conditions: FIG. 2, FIG. 7
Description: (§1) Cell proliferation, cell cycle, and apoptosis assays. For cell proliferation assays, manual cell counts were performed by culturing cells in 24- or 48-well plates. Viable cells were counted using trypan blue exclusion and cell density was re-adjusted in each well every 3-5 days. For cell cycle assays, the Click-iT™ EdU Flow Cytometry Assay system (Invitrogen) was used following the manufacturer's instructions. For apoptosis assays, apoptotic and necrotic cells were analyzed by use of Annexin V/DAPI staining.

[2] = test system: HL60 AML cells; test: Cell proliferation assay, HL60 AML cells; type: cell-based, human; conditions: FIG. 2, FIG. 3
Description: as §1

[3] = test system: KG1a AML cells; test: Cell proliferation assay, KG1a AML cells; type: cell-based, human; conditions: FIG. 2
Description: as §1

[4] = test system: MOLM13; test: Cell proliferation assay, MOLM13 AML cells; type: cell-based, human; conditions: FIG. 2
Description: as §1

[5] = test system: AML cells; test: Colony formation assay, AML cells; type: cell-based; conditions: FIG. 4
Description: (§2) Colony, formation assays and serial replating assays. Assays were performed in MethoCult M3434 (Stern Cell Technologies, Vancouver, BC) containing IL-3, IL-6, SCF, and EPO or in MethoCult M3234 supplemented with M-CSF or GM-CSF as previously described (Higuchi et al, 2002; Huntly et al, 2004;Will et al, 2009). GFP+ colonies were scored 8-10 days after plating using an AXIOVERT 200M microscope (Zeiss, Maple Grove, Minn.). After scoring, GFP+ cells were re-sorted after each round and then serial replating assays were carried out. Cells were replated and colonies were again scored after 10-14 days.

[6] = test system: AML and MDS cells isolated from the bone marrow of AML and MDS patients; test: Growth of primary patient AML/MDS cells versus healthy donor hematopoietic cells; type: cell-based, human; conditions: primary bone marrow and peripheral blood samples; *p<0.05, **p<0.01; FIG. 5
Description: The experiments illustrated in FIG. 5 were performed using primary bone marrow and peripheral blood samples given by healthy donors and by patients with acute myeloid leukemia.

[7] = test system: AML cells; test: Apoptosis assay (Annexin V/DAPI), AML cells; type: cell-based; conditions: 24 hours of incubation, FIG. 6
Description: FIG. 6. […] 24 hours of incubation with Compound 1 (assay by Annexin V/DAPI), Black—Percentage of live cells; Grey—Percentage of apoptotic cells.
as §1

[8] = test system: cells from a patient with myelodysplastic syndrome (MDS); test: Colony formation of cells from a patient with myelodysplastic syndrome; type: cell-based, human; conditions: FIG. 8
Description: FIG. 8. Compound 1-mediated inhibition of PAK1: effects on colony formation of cells from a patient with myelodysplastic syndrome (MDS). Inhibition of PAKI is effective in both myelodysplastic syndrome (MDS) and acute myeloid leukemia (AML).
as §2
FIG. 8 illustrates Compound 1-mediated inhibition of PAK1 effects on colony formation of cells from a patient with myelodysplastic syndrome (MDS) Inhibition of PAK1 is effective in both myelodysplastic syndrome (MDS) and acute myeloid leukemia (AML). See also FIG. 5.

[9] = test system: downstream signaling pathways of PAK1; test: Phosphorylation status of kinases in THP1 leukemia cells; type: cell-based, human; conditions: 4 hours, 6 μg/ml IPA-3 vs DMSO, FIG. 9
Text: FIG. 9. Effect of Compound 1 (IPA-3) on downstream signaling pathways of PAKI.
(§3) In contrast, STAT4 expression is increased upon treatment with Compound 1 or PAK1 shRNA knockdown in THP1 cells (FIG. 10).

[10] = test system: STAT4; test: STAT4 expression in THP1 cells (Western Blot, qRT-PCR); type: cell-based, human; conditions: FIG. 10
Description: FIG. 10A-10B. STAT4 expression is increased upon treatment with Compound 1 (IPA-3) or PAKI shRNA knockdown in THP1 cells. A) Western Blot; B) qRT-PCR.
Quantitative real-time PCR. Total RNA was extracted from FACS-sorted cells or cultured cells using RNeasy Micro kit (Qiagen, Valencia, Calif.). cDNA was synthesized by Superscript II reverse transcriptase (Invitrogen, Carlsbad, Calif.). Real-time PCR was performed using an iQ5 real-time PCR detection system (BIO-RAD, Hercules, Calif.) with 1 cycle of 50° C. (2 min) and 95° C. (10 min) followed by 40 cycles of 95° C. (15 sec) and 60° C. (1 min) using Power SYBR Green PCR master mix (AB, Carlsbad, Calif.).
Western blotting. Total cell lysates were extracted in lysis buffer (50 mM Tris-Cl (pH 7.5), 1 mM EDTA, 150 mM NaCl, 1%NP-40, 1% sodium deoxycholate, 1 mM PMSF, and protease inhibitor (Roche)). Anti-Hlx polyclonal rabbit antibody (SantaCruz, clone H-130, sc-135014) and anti-actin polyclonal goat antibody (Santa Cruz, clone C-11, sc1615) were used as primary antibodies, […] anti-rabbit or anti-goat antibody (Santa Cruz) were used as secondary antibodies. ECL solution (Pierce) was used for detection.
as §3

[11] = test system: THP1 AML cells; test: Survival of mice injected with THP1 cells expressing PAK1 shRNA; type: in vivo; conditions: for liver infiltration of leukemia cells: animals receiving THP1 with shRNA vs control cells, not illustrated; for survival of mice: mice injected with 300,000 THP1 cells expressing shRNA, vs non-silencing control shRNA, FIG. 12B
Description: FIG. 12A-12B, Evaluation of PAK1 expression reduction in THP1 AML cells by shRNAs, A) Evaluated mRNA levels by RT-gPCR.
The effects on survival of reduced PAK1 expression in THP1 AML cells when expression was reduced by shRNAs was evaluated in mice.

Question: For Cc1nc(Nc2n[nH]c3c2CN(C(=O)N[C@H](CN(C)C)c2ccccc2)C3(C)C)c2sccc2n1 [Compound 2, (S)-N-(2-(dimethylamino)-1-phenylethyl)-6,6-dimethyl-3-((2-methylthieno[3,2-d]pyrimidin-4-yl)amino)-4,6-dihydropyrrolo[3,4-c]pyrazole-5(1H)-carboxamide], which “proliferation of THP1 AML cells” value [1] is on record?
Answer: reduces proliferation

Question: Which results are given for Oc1ccc2ccccc2c1SSc1c(O)ccc2ccccc12 [Compound 1, 1,1′-Disulfanediyldinaphthalen-2-ol]?
Answer: proliferation of HL60 AML cells [2]: reduces proliferation; proliferation of THP1 AML cells [1]: reduces proliferation; proliferation of KG1a AML cells [3]: reduces proliferation; proliferation of MOLM13 AML cells [4]: reduces proliferation; colony formation ability of AML cells [5]: reduces colony formation ability; effect on growth of AML and MDS patient cells compared with healthy hematopoietic cells [6]: greater effect; apoptosis in AML cells [7]: induces apoptosis; colony formation of cells from a patient with MDS [8]: effective; several additional oncogenic signaling pathways (kinase phosphorylation status) [9]: significantly inhibited; STAT4 expression [10]: increased

Question: For “shRNA #2: short hairpin sequence for human PAK1, GCGATCCTAAGAAGAAATATA, expressed by lentivirus (the letters are possibly those of the target site)”, which “liver infiltration of leukemia cells” value [11] is on record?
Answer: Significantly less liver infiltration of leukemia cells

Question: And the “long-term survival of some mice” value ([11]; entire duration of the assay (90 days))?
Answer: long-term survival

Question: What about the survival of mice [11] of the same compound?
Answer: Significant prolongation of survival

Question: What does the source list for “shRNA #1: short hairpin sequence for human PAK1, CGATGAGAAATACCAGCACTA, expressed by lentivirus (the letters are possibly those of the target site)”?
Answer: liver infiltration of leukemia cells [11]: Significantly less liver infiltration of leukemia cells; survival of mice [11]: Significant prolongation of survival
